The values that follow come from patent publication US11420935B2, “Bicyclic compounds” (Vivace Therapeutics, Inc., priority 2019, dated 2022).

For the first assay, the system named is 8×TBD luciferase reporter (YAP) in HEK293T cells. The assay is described as follows: YAP Reporter Assay (8×TBD firefly luciferase reporter). Type of assay: cell-based. The conditions noted are these: Homo sapiens, HEK-293T, 24 h, read-out: Firefly Luciferase IC50 (μM). The procedure:
HEK293T cells stably transfected with 8×TBD luciferase reporter and pRLTK in 384-well plates were treated with the test compounds, starting from 3 μM (final concentration in assay plate), 1:3 dilution, and 10 points in quadruplicates. Post 24-hr incubation with compounds at 37° C. and 5% CO2, cells were lysed and 8×TBD-driven firefly luciferase and control TK-driven renilla luciferase activities were measured using Promega Dual-Luciferase Reporter Assay System.
Reagents: The reagents used for this study are: DMEM: Invitrogen #11960077, Dual-Glo Luciferase Assay System: Promega-E2980, Puromycin Dihydrochloride: Invitrogen-A1113803, 384-well plate: PerkinElmer-6007480, L-GLUTAMINE: Invitrogen-25030164, Hygromycin B: Invitrogen-10687010, and Penicillin-Streptomycin: Merk-TMS-AB2-C
Media: The media used for this assay were: Culture Medium: DMEM+1 ug/mL puromycin+200 ug/mL hygromycin (with 10% FBS+1 mM L-glutamine); and Assay Medium: DMEM (with 10% FBS+1 mM L-glutamine+1×P/S).
Cell Plating: The appropriate media was warmed at 37° C. by water bath: Culture Medium, Assay Medium, 1*D-PBS, 0.05% trypsin-EDTA. The cells were trypsinized after removing all media, then washed with 1*sterile D-PBS and then with 2 ml 0.05% trypsin-EDTA. The cells were then incubated at RT for one minute. Then 10 ml/75 cm2 flask Assay Medium was added to each flask. Using a 10 ml pipette, the cells were then gently resuspended in the media, until the clumps completely disappeared. The cells were then transferred into 50 ml centrifuge tubes and were centrifuged at 800 rpm for 5 mins. The medium was removed and the cells were resuspended with Assay Medium. An aliquot of cells was used to count the cell density (cells/ml). The cell suspension was then diluted with Assay Medium to a concentration of 6×10^4 cells/ml. 50 ul cells suspension was then plated to 384-well plate (PerkinElmer-6007480), 3×10^3 cells/well and the cells were incubated in an incubator at 37° C., 5% CO2.
Compound Treatment: In the afternoon (incubation of the plate with 3-4 hrs), the test compounds were added by Echo, starting from 3 uM (final concentration in the assay plate), 1:3 dilution, 10 points, quadruplicates. The plate was placed at 37° C., 5% CO2 incubator for 24 hrs.
Detection: The Dual-Glo Luciferase Reagent was prepared by transferring the contents of one bottle of Dual-Glo Luciferase Buffer to one bottle of Dual-Glo Luciferase Substrate to create the Dual-Glo Luciferase Reagent. Mixing was performed by inversion until the substrate was thoroughly dissolved. After mixing, the reagent was aliquoted into 15 ml tubes. In the afternoon (24 hrs post compound treatment), the DMEM+medium in the 384 well plates were aspirated by Microplate Washer.
Measuring firefly luciferase activity: 20 ul Dual-Glo Luciferase Reagent was added to the 384-well plates. The plates were protected from light to prevent interference with the assay. The plates were shaken for 1 min followed centrifuging plates at 1000 rpm for 30 seconds. After waiting at least 10 minutes, the firefly luminescence was measured by Envision.
Measuring renilla luciferase activity: 20 ul Stop-Glo Reagent was added to the 384-well plates. The plates were shaken for 1 min and then centrifuged at 1000 rpm for 30 seconds. After waiting at least 10 minutes, the renilla luminescence was measured by Envision.
Compound IC50 and maximum inhibition on the firefly luciferase and renilla luciferase activities were reported separately.
`N#CCNC(=O)c1ccc2c(Oc3ccc(C(F)(F)F)cc3)cccc2c1` [Compound 22, N-(cyanomethyl)-5-(4-(trifluoromethyl)phenoxy)-2-naphthamid]: the IC50 is below 0.1 µM.

Regarding `N#CCCNC(=O)c1ccc2c(Oc3ccc(C(F)(F)F)cc3)cccc2c1` [Compound 23, N-(2-cyanoethyl)-5-(4-(trifluoromethyl)phenoxy)-2-naphthamide], the IC50 is below 0.1 µM.

The assay is the same for the next values; noted with them: Homo sapiens, HEK-293T; HEK293T cells stably transfected with 8×TBD luciferase reporter and pRLTK; 24-hr incubation; firefly luciferase activity; read-out: Firefly Luciferase IC50.
Consider `COC[C@H](C)NC(=O)c1cnc2c(Oc3ccc(C(F)(F)F)cc3)cccc2c1` [Compound 18, N-[(1S)-2-methoxy-1-methyl-ethyl]-8-[4-(trifluoromethyl)phenoxy]quinoline-3-carboxamide], for which the IC50 was below 0.1 µM.

Consider `C[C@H](NC(=O)c1cnc2c(Oc3ccc(C(F)(F)F)cc3)cccc2c1)c1ccccn1` [Compound 19, N-[(1S)-1-(2-pyridyl)ethyl]-8-[4-(trifluoromethyl)phenoxy]quinoline-3-carboxamide], for which the IC50 was below 0.1 µM.

Take `C#CCNC(=O)c1ccc2c(Oc3ccc(C(F)(F)F)cc3)cccc2c1` [Compound 20, N-(prop-2-yn-1-yl)-5-(4-(trifluoromethyl)phenoxy)-2-naphthamide]: the IC50 is below 0.1 µM.

On to `C#CCCNC(=O)c1ccc2c(Oc3ccc(C(F)(F)F)cc3)cccc2c1` [Compound 21, N-(but-3-yn-1-yl)-5-(4-(trifluoromethyl)phenoxy)-2-naphthamide], for which the IC50 is below 0.1 µM.

With `C[C@H](CO)NC(=O)c1ccc2c(Oc3ccc(C(F)(F)F)cc3)cccc2c1` [Compound 24, (R)—N-(1-hydroxypropan-2-yl)-5-(4-(trifluoromethyl)phenoxy)-2-naphthamide], the IC50 was below 0.1 µM.

Consider `O=C(NC(CO)c1ccccn1)c1ccc2c(Oc3ccc(C(F)(F)F)cc3)cccc2c1` (stereo not drawn) [Compound 25, N-(2-hydroxy-1-(pyridin-2-yl)ethyl)-5-(4-(trifluoromethyl)phenoxy)-2-naphthamide], for which the IC50 was below 0.1 µM.

Consider `COC[C@@H](C)NC(=O)c1ccc2c(Oc3ccc(C(F)(F)F)cc3)cccc2c1` [Compound 26, (R)—N-(1-methoxypropan-2-yl)-5-(4-(trifluoromethyl)phenoxy)-2-naphthamide], for which the IC50 was below 0.1 µM.

For the compound `C[C@@H](NC(=O)c1ccc2c(Oc3ccc(C(F)(F)F)cc3)cccc2c1)c1ccccn1` [Compound 27, N-[(1R)-1-(2-pyridyl)ethyl]-5-[4-(trifluoromethyl)phenoxy]naphthalene-2-carboxamide], the IC50 was in the range of 0.1 to 1 µM.

With `COC[C@H](C)NC(=O)c1ccc2c(Oc3ccc(C(F)(F)F)cc3)cccc2c1` [Compound 28, (S)—N-(1-methoxypropan-2-yl)-5-(4-(trifluoromethyl)phenoxy)-2-naphthamide], the IC50 was below 0.1 µM.

In the case of `C[C@H](NC(=O)c1ccc2c(Oc3ccc(C(F)(F)F)cc3)cccc2c1)c1ccccn1` [Compound 29, (S)—N-(1-(pyridin-2-yl)ethyl)-5-(4-(trifluoromethyl)phenoxy)-2-naphthamide], the IC50 is below 0.1 µM.

Regarding `CNCCNC(=O)c1ccc2c(Oc3ccc(C(F)(F)F)cc3)cccc2c1` [Compound 30, N-(2-(methylamino)ethyl)-5-(4-(trifluoromethyl)phenoxy)-2-naphthamide], the half-maximal inhibitory concentration (IC50) is 0.1 to 1 µM.

Turning to `CN(C#N)CCNC(=O)c1ccc2c(Oc3ccc(C(F)(F)F)cc3)cccc2c1` [Compound 31, N-(2-(N-methylcyanamido)ethyl)-5-(4-(trifluoromethyl)phenoxy)-2-naphthamide], the IC50 was below 0.1 µM.

As for `CC(C)NC(=O)c1cc2cccc(Oc3ccc(C(F)(F)F)cc3)c2s1` [Compound 32, N-isopropyl-7-(4-(trifluoromethyl)phenoxy)benzo[b]thiophene-2-carboxamide], the 50% inhibitory concentration (IC50) was below 0.1 µM.

Take `C[C@H](CO)NC(=O)c1cc2cccc(Oc3ccc(C(F)(F)F)cc3)c2s1` [Compound 33, (R)—N-(1-hydroxypropan-2-yl)-7-(4-(trifluoromethyl)phenoxy)benzo[b]thiophene-2-carboxamide]: the IC50 is below 0.1 µM.

With `CNCCCNC(=O)c1ccc2c(Oc3ccc(C(F)(F)F)cc3)cccc2c1` [Compound 34, N-(3-(methylamino)propyl)-5-(4-(trifluoromethyl)phenoxy)-2-naphthamide], the IC50 is below 0.1 µM.

As to `CN(C#N)CCCNC(=O)c1ccc2c(Oc3ccc(C(F)(F)F)cc3)cccc2c1` [Compound 35, N-(3-(N-methylcyanamido)propyl)-5-(4-(trifluoromethyl)phenoxy)-2-naphthamide], the IC50 is below 0.1 µM.

For the compound `O=C(NC1(c2ccccc2)CC1)c1ccc2c(Oc3ccc(C(F)(F)F)cc3)cccc2c1` [Compound 36, N-(1-phenylcyclopropyl)-5-[4-(trifluoromethyl)phenoxy]naphthalene-2-carboxamide], the IC50 was below 0.1 µM.

Take `O=C(NC1(c2ccccc2)COC1)c1ccc2c(Oc3ccc(C(F)(F)F)cc3)cccc2c1` [Compound 37, N-(3-phenyloxetan-3-yl)-5-(4-(trifluoromethyl)phenoxy)-2-naphthamide]: the IC50 was below 0.1 µM.

With `C[C@@H](NC(=O)c1ccc2c(Oc3ccc(C(F)(F)F)cc3)cccc2c1)C1CC1` [Compound 38, (R)—N-(1-cyclopropylethyl)-5-(4-(trifluoromethyl)phenoxy)-2-naphthamide], the IC50 is below 0.1 µM.

On to `C[C@H](NC(=O)c1ccc2c(Oc3ccc(C(F)(F)F)cc3)cccc2c1)C1CC1` [Compound 39, (S)—N-(1-cyclopropylethyl)-5-(4-(trifluoromethyl)phenoxy)-2-naphthamide], for which the IC50 was below 0.1 µM.

On to `C[C@@H](NC(=O)c1ccc2c(Oc3ccc(C(F)(F)F)cc3)cccc2c1)C1COC1` [Compound 40, (R)—N-(1-(oxetan-3-yl)ethyl)-5-(4-(trifluoromethyl)phenoxy)-2-naphthamide], for which the IC50 was below 0.1 µM.

In the case of `C[C@H](NC(=O)c1ccc2c(Oc3ccc(C(F)(F)F)cc3)cccc2c1)C1COC1` [Compound 41, (S)—N-(1-(oxetan-3-yl)ethyl)-5-(4-(trifluoromethyl)phenoxy)-2-naphthamide], the IC50 is below 0.1 µM.

Take `COc1cc(Oc2ccc(C(F)(F)F)cc2)c2ncc(C(=O)N[C@H](C)c3ccccn3)cc2c1` [Compound 42, (R)-6-methoxy-N-(1-(pyridin-2-yl)ethyl)-8-(4-(trifluoromethyl)phenoxy)quinoline-3-carboxamide]: the IC50 was in the range of 0.1 to 1 µM.

As to `COc1cc(Oc2ccc(C(F)(F)F)cc2)c2ncc(C(=O)N[C@@H](C)c3ccccn3)cc2c1` [Compound 43, (S)-6-methoxy-N-(1-(pyridin-2-yl)ethyl)-8-(4-(trifluoromethyl)phenoxy)quinoline-3-carboxamide], the IC50 is below 0.1 µM.

With `COC[C@@H](C)NC(=O)c1cnc2c(Oc3ccc(C(F)(F)F)cc3)cc(OC)cc2c1` [Compound 44, (R)-6-methoxy-N-(1-methoxypropan-2-yl)-8-(4-(trifluoromethyl)phenoxy)quinoline-3-carboxamide], the IC50 is below 0.1 µM.

For `COC[C@H](C)NC(=O)c1cnc2c(Oc3ccc(C(F)(F)F)cc3)cc(OC)cc2c1` [Compound 45, (S)-6-methoxy-N-(1-methoxypropan-2-yl)-8-(4-(trifluoromethyl)phenoxy)quinoline-3-carboxamide], the IC50 is below 0.1 µM.

Regarding `C[C@@H](NC(=O)c1ccc2c(Oc3ccc(C(F)(F)F)cc3)cccc2c1)c1cnccn1` [Compound 46, (R)—N-(1-(pyrazin-2-yl)ethyl)-5-(4-(trifluoromethyl)phenoxy)-2-naphthamide], the IC50 is below 0.1 µM.

In the case of `C[C@H](NC(=O)c1ccc2c(Oc3ccc(C(F)(F)F)cc3)cccc2c1)c1cnccn1` [Compound 47, (S)—N-(1-(pyrazin-2-yl)ethyl)-5-(4-(trifluoromethyl)phenoxy)-2-naphthamide], the IC50 is 0.1 to 1 µM.
